# Source: patent EP4512427A1, “ANTIBODY-DRUG CONJUGATES BASED ON MOLECULAR GLUE DEGRADERS AND USES THEREOF” (Mablink Bioscience, priority 2023, dated 2025)
# Columns and labels:
# CycK = CycK protein quantification by Western Blot; type: cell-based, human
# Experimental: 1×10^6 JIMT-1 cells were plated in 3mL of DMEM/FBS 90:10 (v/v) in 6-well plates and incubated overnight. Cells were treated with the compound 2384 of the invention with or without the proteasome inhibitor MG-132 (MedChemExpress, Cat HY-13259) for 2h. Cells were harvested, and protein were extracted using complete RIPA buffer (RIPA buffer, 1 mM DTT, 1M NaF, 100 mM sodium orthovanadate, phosphatase inhibitor buffer and protease inhibitors) for 1 hour on ice. Lysate were centrifuged 15min at 12 000g at 4°C. and proteins were mixed with 4x Laemmli Sample Buffer (Bio-Rad), heated at 95 °C for 5 mins and separated by SDS PAGE (PROTEAN TGX Stain-Free Gels, Bio-Rad). Proteins were then transferred onto PVDF membrane (iBlot®2 PVDF stacks, Invitrogen) using the iBlot2 device (Invitrogen) and blocked with TBS buffer (Intercept® Blocking Buffer, LI-COR Biosciences). Primary antibodies were incubated overnight at 4°C and secondary antibodies (IRDye Infrared Dyes from LI-COR Biosciences) 1 hour at room temperature. Used primary antibody were: anti-CycK (cat#A301-939A, Bethyl Laboratories, dil. 1:1000) and anti-β-actin (cat#A5441, Sigma-Aldrich, dil. 1:5000). Membranes were scanned using a c500 Imaging System (Azure Biosystems) and densitometric quantification were performed using imaged software. Protein levels were normalized against β-actin.
# JIMT-1 cells = assay: Cell cycle arrest assessment (propidium iodide); type: cell-based, human
# Experimental: 1×10^6 JIMT-1 cells were plated in 3mL of DMEM/FBS 90:10 (v/v) in 6-well plates and incubated overnight. Cells were treated with the compound 2384 of the invention or with CR8 for 24h. Cells were then harvested and washed three times with PBS. Cells were suspended into 300µL of propidium iodide working solution (0.05mg/mL) and incubated for 45 minutes at 4°C in the dark. Analysis was performed using a BD Fortessa flow cytometer controlled by BD FACSDiva software (BD Biosciences) and data were analyzed using FlowJo software (BD Bioscience).
# [1] = tested on: cancerous human cell lines; assay: In vitro cytotoxicity assay (MTT), side-by-side comparisons over the cell line panel; type: cell-based; details: side-by-side comparison (Figures 1-3, Table 3), result in words
# Experimental: (§1) In vitro cytotoxicity of compounds of the disclosure was assessed on several cancerous human cell lines. Cells were plated in 96-well plates at an appropriate density depending on the cell line (between 1000 and 10 000 cells/well in 100µL of appropriate culture media) and incubated at 37°C for 24 hours. Serial dilutions of the tested compound previously dissolved in culture media (50µL) were added, and incubation was carried at 37°C out for 6 days. MTT (5mg/mL in PBS, 20µL, Sigma-Aldrich) was added into the wells, and incubation was continued for 1 to 4 hours at 37°C. Culture media was then carefully removed, and well content was homogeneously dissolved with acidified isopropanol. Absorbance values were measured on a microplate reader using a wavelength of 570 nm (with a reference wavelength of 690 nm). The IC50 concentration values compared to untreated control cells were determined using inhibition dose response curve fitting (GraphPad Prism 9). Exatecan mesylate (cat#HY-13631A) and CR8 (CAS# 294646-77-8; cat#HY-18340) were purchased from MedChemExpress (China).
# BT-474 = assay: In vitro cytotoxicity assay (MTT); type: cell-based, human; details: BT-474, 6 days incubation, MTT
# Experimental: as §1
# NCI-N87 = assay: In vitro cytotoxicity assay (MTT); type: cell-based, human; details: 6 days incubation
# Experimental: as §1
# MDA-MB-453 = assay: In vitro cytotoxicity assay (MTT); type: cell-based, human; details: 6 days incubation
# Experimental: as §1
# JIMT-1 = assay: In vitro cytotoxicity assay (MTT); type: cell-based, human; details: 6 days incubation
# Experimental: as §1
# SKBR-3 = assay: In vitro cytotoxicity assay (MTT); type: cell-based, human; details: 6 days incubation
# Experimental: as §1
# MDA-MB-231 = assay: In vitro cytotoxicity assay (MTT); type: cell-based, human; details: 6 days incubation
# Experimental: as §1
# MCF-7 = assay: In vitro cytotoxicity assay (MTT); type: cell-based; details: Homo sapiens, MCF7, 144 h, 6 days incubation
# Experimental: as §1
# HT-29 = assay: In vitro cytotoxicity assay (MTT); type: cell-based; details: Homo sapiens, 144 h, 6 days incubation
# Experimental: as §1
# BXPC3 = assay: In vitro cytotoxicity assay (MTT); type: cell-based; details: Homo sapiens, BXPC-3, 144 h, 6 days incubation
# Experimental: as §1
# A549 = assay: In vitro cytotoxicity assay (MTT); type: cell-based; details: Homo sapiens, 144 h, 6 days incubation
# Experimental: as §1
# Caco-2 = assay: In vitro cytotoxicity assay (MTT); type: cell-based; details: Homo sapiens, 144 h, 6 days incubation
# Experimental: as §1
# HCT-116 = assay: In vitro cytotoxicity assay (MTT); type: cell-based; details: Homo sapiens, 144 h, 6 days incubation
# Experimental: as §1
# OE-19 = assay: In vitro cytotoxicity assay (MTT); type: cell-based; details: Homo sapiens, OE19, 144 h, 6 days incubation
# Experimental: as §1
# [2] = Homo sapiens, MDA-MB-453, 144 h
# [3] = Homo sapiens, MDA-MB-231, 144 h
SMILES,IC50 (MCF-7) [nM],IC50 (HT-29) [nM],IC50 (A549) [nM],IC50 (Caco-2) [nM],IC50 (HCT-116) [nM],IC50 (OE-19) [nM],"IC50 (BT-474; Homo sapiens, BT-474, 144 h) [nM]","IC50 (NCI-N87; Homo sapiens, NCI-N87, 144 h) [nM]",IC50 (MDA-MB-453; [2]) [nM],"IC50 (JIMT-1; Homo sapiens, 144 h) [nM]","IC50 (SKBR-3; Homo sapiens, SK-BR-3, 144 h) [nM]",IC50 (MDA-MB-231; [3]) [nM],also measured
"CC[C@H](CO)Nc1nc(NCc2ccc(-c3ccccn3)cc2)c2ncn(C(C)C)c2n1 [CR8, reference compound]",–,–,–,–,–,–,–,–,–,–,–,–,"CycK degradation (CycK; 10nM, 2h treatment of JIMT-1 cells): no CycK was observed; cell cycle analysis (JIMT-1 cells; 24h at 50 nM): arrest in G2/M phase; cell cycle analysis (JIMT-1 cells; 24h at 2, 5, and 10 nM): no impact on cell cycle; in vitro cytotoxicity potency [1]: potencies in the high nanomolar range; IC50 (BT-474): 18.4 nM; IC50 (NCI-N87): 62.2 nM; IC50 (MDA-MB-453): 40.3 nM; IC50 (JIMT-1): 25.2 nM; IC50 (SKBR-3): 30.6 nM; IC50 (MDA-MB-231): 10.4 nM"
"Brc1cnn2c(NCc3ccc(-c4ccccn4)cc3)nc(NC3CCNCC3)nc12 [Compound 2388, 8-bromo-N2-(piperidin-4-yl)-N4-(4-(pyridin-2-yl)benzyl)pyrazolo[1,5-a][1,3,5]triazine-2,4-diamine]",5.4,0.23,0.65,4.46,1.66,3.77,1.64,1.4,1.27,0.64,1.68,0.76,IC50 (BXPC3): 1.97 nM
"CC(C)c1cnn2c(NCc3ccc(-c4ccccn4)cc3)nc(N[C@H]3CC[C@H](N)CC3)nc12 [Compound 2420, N2-((1r,4r)-4-aminocyclohexyl)-8-isopropyl-N4-(4-(pyridin-2-yl)benzyl)pyrazolo[1,5-a][1,3,5]triazine-2,4-diamine]",7.78,1.74,1.99,56.1,4.4,6.91,3.41,4.93,2.73,0.61,3.25,0.7,–
CC(C)c1cnn2c(NCc3ccc(-c4ccccn4)cc3)nc(NC3CCNCC3)nc12 [Compound 2428],9.12,0.83,2.22,24.2,5.31,7.84,3.73,4.5,3.11,0.92,1.94,2.31,–
"CN(C)C/C=C/C(=O)Nc1ccc(C(=O)N2CCC[C@@H](Nc3ncc(Cl)c(-c4c[nH]c5ccccc45)n3)C2)cc1 [THZ-531, reference compound]",–,–,–,–,–,–,–,–,–,–,–,–,"CycK protein content (CycK; JIMT-1 cells, 1µM, 2h): no impact on CycK protein content"
